Results published in ChEMBL document CHEMBL1201862, “PubChem BioAssay data set” (2004).
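Five concentrations, 48 hours, 96-well plates. Abbreviation: GI50, concentration required for 50% inhibition of growth.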 Active and inactive are the calls of the source. Cut-off read from the data, not from the text of the source: active = GI50 up to about 1.1 µM and inactive = higher.

Experiments:
Test in all cases: NCI anticancer screen, dose series, 48 h
786-0 = tested on: 786-0
A498 = tested on: A498
A549 = tested on: A549
ACHN = tested on: ACHN
BT-549 = tested on: BT-549
CAKI-1 = tested on: CAKI-1
CCRF-CEM = tested on: CCRF-CEM
COLO 205 = tested on: COLO 205
DU-145 = tested on: DU-145
EKVX = tested on: EKVX
HCC 2998 = tested on: HCC 2998
HCT-116 = tested on: HCT-116
HCT-15 = tested on: HCT-15
HL-60 = tested on: HL-60
HOP-62 = tested on: HOP-62
HOP-92 = tested on: HOP-92
HT-29 = tested on: HT-29
Hs-578T = tested on: Hs-578T
IGROV-1 = tested on: IGROV-1
K562 = tested on: K562
KM12 = tested on: KM12
LOX IMVI = tested on: LOX IMVI
M14 = tested on: M14
MCF7 = tested on: MCF7
MDA-MB-231 = tested on: MDA-MB-231
MDA-MB-435 = tested on: MDA-MB-435
MDA-N = tested on: MDA-N
MOLT-4 = tested on: MOLT-4
Malme-3M = tested on: Malme-3M
NCI-H226 = tested on: NCI-H226
NCI-H23 = tested on: NCI-H23
NCI-H460 = tested on: NCI-H460
NCI-H522 = tested on: NCI-H522
NCI/ADR-RES = tested on: NCI/ADR-RES
OVCAR-3 = tested on: OVCAR-3
OVCAR-4 = tested on: OVCAR-4
OVCAR-8 = tested on: OVCAR-8
PC-3 = tested on: PC-3
RPMI-8226 = tested on: RPMI-8226
RXF 393 = tested on: RXF 393
SF-268 = tested on: SF-268
SF-295 = tested on: SF-295
SF-539 = tested on: SF-539
SK-MEL-28 = tested on: SK-MEL-28
SK-MEL-5 = tested on: SK-MEL-5
SK-OV-3 = tested on: SK-OV-3
SN12C = tested on: SN12C
SNB-19 = tested on: SNB-19
SNB-75 = tested on: SNB-75
SR = tested on: SR
SW-620 = tested on: SW-620
T47D = tested on: T47D
TK-10 = tested on: TK-10
U-251 = tested on: U-251
UACC-257 = tested on: UACC-257
UACC-62 = tested on: UACC-62
UO-31 = tested on: UO-31
OVCAR-5 = tested on: OVCAR-5
SK-MEL-2 = tested on: SK-MEL-2

CCCCN(C(=O)c1ccccc1)C1CCC(=O)c2[nH]c3ccccc3c21 (stereo not given)
GI50 (786-0): 42.1 µM (inactive) | GI50 (A498): 29 µM (inactive) | GI50 (A549): 34.4 µM (inactive) | GI50 (ACHN): 31.3 µM (inactive) | GI50 (BT-549): 36.9 µM (inactive) | GI50 (CAKI-1): 20.8 µM (inactive) | GI50 (CCRF-CEM): 29.6 µM (inactive) | GI50 (COLO 205): 21 µM (inactive) | GI50 (DU-145): 75 µM (inactive) | GI50 (EKVX): 51.6 µM (inactive) | GI50 (HCC 2998): 34.4 µM (inactive) | GI50 (HCT-116): 24.7 µM (inactive) | GI50 (HCT-15): 24.5 µM | GI50 (HL-60): 8.75 µM (inactive) | GI50 (HOP-62): 40.4 µM (inactive) | GI50 (HOP-92): 22.1 µM (inactive) | GI50 (HT-29): 20.5 µM (inactive) | GI50 (Hs-578T): 16.9 µM (inactive) | GI50 (IGROV-1): 46.3 µM (inactive) | GI50 (K562): 49.7 µM (inactive) | GI50 (KM12): 79.6 µM (inactive) | GI50 (LOX IMVI): 43.1 µM (inactive) | GI50 (M14): 67.1 µM (inactive) | GI50 (MCF7): 27.4 µM (inactive) | GI50 (MDA-MB-231): 23.7 µM (inactive) | GI50 (MDA-MB-435): 23.1 µM (inactive) | GI50 (MDA-N): 50 µM (inactive) | GI50 (MOLT-4): 32.8 µM (inactive) | GI50 (Malme-3M): 55 µM (inactive) | GI50 (NCI-H226): 29 µM (inactive) | GI50 (NCI-H23): 62.4 µM (inactive) | GI50 (NCI-H460): 35.4 µM (inactive) | GI50 (NCI-H522): 38.7 µM (inactive) | GI50 (NCI/ADR-RES): 30.8 µM (inactive) | GI50 (OVCAR-3): 64.7 µM (inactive) | GI50 (OVCAR-4): 26.7 µM (inactive) | GI50 (OVCAR-8): 45.8 µM (inactive) | GI50 (PC-3): 20.7 µM (inactive) | GI50 (RPMI-8226): 19.4 µM (inactive) | GI50 (RXF 393): 25.8 µM (inactive) | GI50 (SF-268): 45.4 µM (inactive) | GI50 (SF-295): 30.5 µM (inactive) | GI50 (SF-539): 31.5 µM (inactive) | GI50 (SK-MEL-28): 90.2 µM (inactive) | GI50 (SK-MEL-5): 18.7 µM (inactive) | GI50 (SK-OV-3): 61.1 µM (inactive) | GI50 (SN12C): 57.1 µM (inactive) | GI50 (SNB-19): 43.6 µM (inactive) | GI50 (SNB-75): 0.481 µM (active) | GI50 (SR): 11.2 µM (inactive) | GI50 (SW-620): 59.4 µM (inactive) | GI50 (T47D): 26.9 µM (inactive) | GI50 (TK-10): 37.5 µM (inactive) | GI50 (U-251): 29.1 µM (inactive) | GI50 (UACC-257): 54 µM (inactive) | GI50 (UACC-62): 25 µM (inactive) | GI50 (UO-31): 66.5 µM (inactive)

C=C1C(=O)O[C@H]2[C@H]1CC(=O)/C(C)=C/CC[C@@]1(C)O[C@@H]21
GI50 (786-0): 0.582 µM (active) | GI50 (A498): 1.64 µM (inactive) | GI50 (A549): 12.7 µM (inactive) | GI50 (ACHN): 0.461 µM (active) | GI50 (BT-549): 0.423 µM (active) | GI50 (CAKI-1): 0.53 µM (active) | GI50 (CCRF-CEM): 0.0841 µM (active) | GI50 (COLO 205): 0.255 µM (active) | GI50 (DU-145): 6.5 µM (inactive) | GI50 (HCC 2998): 2.4 µM (inactive) | GI50 (HCT-116): 0.719 µM (active) | GI50 (HCT-15): 0.515 µM | GI50 (HOP-62): 8.36 µM (inactive) | GI50 (HOP-92): 0.74 µM (active) | GI50 (HT-29): 1.13 µM (inactive) | GI50 (Hs-578T): 2.4 µM (inactive) | GI50 (IGROV-1): 2.04 µM (inactive) | GI50 (KM12): 2.49 µM (inactive) | GI50 (LOX IMVI): 0.354 µM (active) | GI50 (M14): 0.37 µM (active) | GI50 (MCF7): 0.392 µM (active) | GI50 (MDA-MB-231): 1.05 µM (active) | GI50 (MDA-MB-435): 1.53 µM (inactive) | GI50 (MDA-N): 0.259 µM (active) | GI50 (Malme-3M): 1.25 µM (inactive) | GI50 (NCI-H226): 4.26 µM (inactive) | GI50 (NCI-H23): 1.67 µM (inactive) | GI50 (NCI-H460): 10.9 µM (inactive) | GI50 (NCI-H522): 0.256 µM (active) | GI50 (NCI/ADR-RES): 1.4 µM (inactive) | GI50 (OVCAR-3): 0.224 µM (active) | GI50 (OVCAR-4): 2.93 µM (inactive) | GI50 (OVCAR-5): 2.15 µM (inactive) | GI50 (OVCAR-8): 2.01 µM (inactive) | GI50 (PC-3): 2.19 µM (inactive) | GI50 (RXF 393): 0.44 µM (active) | GI50 (SF-268): 3.45 µM (inactive) | GI50 (SF-295): 16.2 µM (inactive) | GI50 (SF-539): 2.08 µM (inactive) | GI50 (SK-MEL-28): 0.603 µM (active) | GI50 (SK-MEL-2): 3.03 µM (inactive) | GI50 (SK-MEL-5): 0.973 µM (active) | GI50 (SK-OV-3): 12.9 µM (inactive) | GI50 (SN12C): 1.66 µM (inactive) | GI50 (SNB-19): 3.2 µM (inactive) | GI50 (SNB-75): 16.7 µM (inactive) | GI50 (SR): 0.541 µM (active) | GI50 (SW-620): 0.324 µM (active) | GI50 (T47D): 1.12 µM (active) | GI50 (TK-10): 1.24 µM (inactive) | GI50 (U-251): 5 µM (inactive) | GI50 (UACC-62): 1.37 µM (inactive) | GI50 (UO-31): 0.879 µM (active)
